Experimental findings from patent publication US20230271954A1 (Gossamer Bio Services, Inc., priority 2020, published 2023) are described below.

For test [1], the target named is DGKα (Homo sapiens, UniProt P23743). Put plainly: DGKα biochemical assay (ADP-Glo). The conditions noted are these: read-out: DGK α IC50. The method, then:
(§1) Compounds of the present invention were prepared into 10 mM DMSO solution and 10 nL of stock was transferred into 384 plates (Optiplate 384 plate) using Echo550. DMSO was used as high control, and ATP substrate buffer was used as a low control. A 1× enzyme assay buffer was prepared (Hepes, pH 7.0 25 mM, BSA 0.05%, Triton-X100 0.002%, CaCl2) 1 μM, MgCl2 10 mM, DTT 2 mM). […] OAG (1-oleoyl-2-acetyl-sn-glycerol, 25 mg/ml, Avanti 8001000) and PS (10 mg/ml, Avanti 840032P) were mixed at the ratio of 1:2. A 1× substrate solution was prepared with 1× assay buffer by 100-fold dilution. The substrate solution was sonicated on ice for 1 min. The pure ATP was added to the substrate solution (DGKα:400 μM). 5 μL of the enzyme solution were added to the 384 well plate, and the plate was spun for 1 min at 1000 rpm and incubated for 30 mins at RT. 5 μL of 1× substrate solution were added to the 384 well plate, the plate was spun and then incubated for 45 mins at RT. 10 μL ADP-Glo […] was added to stop the assay. After 60 mins at RT, 20 μL ADP-Glo Detection buffer was added as the final step. Plate was read after 45 min incubation at RT.
(§2) Data analysis was performed by calculating the […] using following the formula:
(§3) [formula] • High control (Hc): DMSO/DGKα(DGKζ)/Substrate/ATP/ADP-Glo • Low Control (Lc): ATP/ADP-Glo

The target in test [2] is T1, DGKζ (Homo sapiens, UniProt Q13574).
T1 construct: purchased Carna 12-110
Put plainly: DGKζ biochemical assay (ADP-Glo). The conditions noted are these: read-out: DGK ζ IC50. The method, then: as §1, §2, §3

Molecules are shown by their SMILES.

T1 sequence (Q13574 1-929 isoform Q13574-4): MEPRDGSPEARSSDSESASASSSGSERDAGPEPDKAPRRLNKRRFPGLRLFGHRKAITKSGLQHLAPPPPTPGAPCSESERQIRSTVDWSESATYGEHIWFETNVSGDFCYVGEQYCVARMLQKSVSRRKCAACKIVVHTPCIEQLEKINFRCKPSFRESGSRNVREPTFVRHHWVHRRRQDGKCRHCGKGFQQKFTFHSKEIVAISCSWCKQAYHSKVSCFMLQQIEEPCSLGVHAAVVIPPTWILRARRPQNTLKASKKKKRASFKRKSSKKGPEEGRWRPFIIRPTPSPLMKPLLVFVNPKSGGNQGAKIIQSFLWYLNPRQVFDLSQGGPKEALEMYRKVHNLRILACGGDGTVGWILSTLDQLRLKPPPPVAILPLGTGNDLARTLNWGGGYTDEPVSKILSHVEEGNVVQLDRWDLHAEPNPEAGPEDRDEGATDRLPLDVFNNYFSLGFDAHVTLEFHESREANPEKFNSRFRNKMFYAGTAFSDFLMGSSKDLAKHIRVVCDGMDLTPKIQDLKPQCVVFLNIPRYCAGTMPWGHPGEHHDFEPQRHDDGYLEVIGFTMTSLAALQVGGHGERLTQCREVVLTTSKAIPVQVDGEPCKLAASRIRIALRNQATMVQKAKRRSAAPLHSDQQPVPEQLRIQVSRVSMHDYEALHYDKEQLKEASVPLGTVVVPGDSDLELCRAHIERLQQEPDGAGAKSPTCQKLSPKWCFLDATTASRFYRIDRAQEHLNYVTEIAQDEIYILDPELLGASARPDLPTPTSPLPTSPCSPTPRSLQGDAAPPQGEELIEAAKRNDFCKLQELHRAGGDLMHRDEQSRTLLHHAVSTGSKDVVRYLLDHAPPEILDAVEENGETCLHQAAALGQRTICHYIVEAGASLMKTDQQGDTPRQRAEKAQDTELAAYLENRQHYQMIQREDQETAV
DGKα, sequence (P23743 whole entry): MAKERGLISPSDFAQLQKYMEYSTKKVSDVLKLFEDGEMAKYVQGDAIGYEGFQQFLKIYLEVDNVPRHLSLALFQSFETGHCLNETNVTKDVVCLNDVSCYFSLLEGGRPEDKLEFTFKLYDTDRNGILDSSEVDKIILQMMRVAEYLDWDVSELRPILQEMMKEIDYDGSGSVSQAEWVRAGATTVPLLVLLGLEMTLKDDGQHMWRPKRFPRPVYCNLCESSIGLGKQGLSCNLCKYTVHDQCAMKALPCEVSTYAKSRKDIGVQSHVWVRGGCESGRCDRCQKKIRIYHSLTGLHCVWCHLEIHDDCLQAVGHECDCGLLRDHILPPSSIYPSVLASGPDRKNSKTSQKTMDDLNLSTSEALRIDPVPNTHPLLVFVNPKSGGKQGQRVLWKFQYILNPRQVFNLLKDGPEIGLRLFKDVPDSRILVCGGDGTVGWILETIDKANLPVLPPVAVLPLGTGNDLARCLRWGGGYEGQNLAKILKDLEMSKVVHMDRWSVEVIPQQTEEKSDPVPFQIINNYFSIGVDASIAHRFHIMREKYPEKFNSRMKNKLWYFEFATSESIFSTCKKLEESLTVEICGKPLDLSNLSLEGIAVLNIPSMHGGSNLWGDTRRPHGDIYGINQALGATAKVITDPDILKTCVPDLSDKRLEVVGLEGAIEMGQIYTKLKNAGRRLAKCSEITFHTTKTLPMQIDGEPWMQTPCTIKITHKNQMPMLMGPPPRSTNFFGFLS

For the compound `Cn1c(=O)cc(N(C)[C@H]2CC[C@H](N(CC3CC3)c3cc(F)cc(F)c3)CC2)c2nc(C#N)ccc21` [Example 90], the IC50 in test [1] and in test [2] was ≥ 1000 nM in each case.

On to `Cn1c(=O)c(C#N)c(N(C)[C@H]2CC[C@@H](N(CC3CC3)c3ccc4c(c3)OCO4)CC2)c2nc(Cl)ccc21` [Example 78], for which the IC50 – broadly, the concentration at which inhibition is half-maximal – in test [1] lay in the range of 100 to 1000 nM; in test [2], 10 to 100 nM.

As for `Cn1c(=O)c(C#N)c(N(C)[C@H]2CC[C@H](N(CC3CCC3)c3ccc(F)cc3CO)CC2)c2nc(Cl)ccc21` [Example 154, trans-6-chloro-4-((4-((cyclobutylmethyl)(4-fluoro-2-(hydroxymethyl)phenyl)amino)cyclohexyl)(methyl)amino)-1-methyl-2-oxo-1,2-dihydro-1,5-naphthyridine-3-carbonitrile], the IC50 in test [1] and in test [2] was ≥ 1000 nM throughout.

On to `Cn1c(=O)c(C#N)c(N(C)[C@H]2CC[C@@H](N(CC3CC3)c3ccc(F)cc3)CC2)c2nc(C#N)ccc21` [Example 30, cis-8-((4-((cyclopropylmethyl)(4-fluorophenyl)amino)cyclohexyl)(methyl)amino)-5-methyl-6-oxo-5,6-dihydro-1,5-naphthyridine-2,7-dicarbonitrile], for which the IC50 in test [1] is < 10 nM; in test [2], 10 to 100 nM.

For `Cc1cc(F)c(F)cc1N(CC1CCC1)[C@H]1CC[C@H](N(C)c2c(C#N)c(=O)n(C)c3ccc(Cl)nc23)CC1` [Example 137, trans-6-chloro-4-((4-((cyclobutylmethyl)(4,5-difluoro-2-methylphenyl)amino)cyclohexyl)(methyl)amino)-1-methyl-2-oxo-1,2-dihydro-1,5-naphthyridine-3-carbonitrile], the half-maximal inhibitory concentration (IC50) in test [1] and in test [2] was ≥ 1000 nM each time.

As for `Cn1c(=O)cc(N(C)[C@H]2CC[C@@H](N(CC3COCCO3)c3ccc4c(c3)OCCO4)CC2)c2nc(C#N)ccc21` (stereo partly drawn) [Example 183, cis-8-((4-(((1,4-dioxan-2-yl)methyl)(2,3-dihydrobenzo[b][1,4]dioxin-6-yl)amino)cyclohexyl) (methyl)amino)-5-methyl-6-oxo-5,6-dihydro-1,5-naphthyridine-2-carbonitrile], the IC50 in test [1] and in test [2] was 100 to 1000 nM each time.

In the case of `Cc1ccc(N(CC2CC2)[C@H]2CC[C@H](N(C)c3c(C#N)c(=O)n(C)c4ccc(C#N)nc34)CC2)cc1` [Example 128, trans-8-((-4-((cyclopropylmethyl)(p-tolyl)amino)cyclohexyl)(methyl)amino)-5-methyl-6-oxo-5,6-dihydro-1,5-naphthyridine-2,7-dicarbonitrile], the IC50 in test [1] and in test [2] was 100 to 1000 nM in each case.

`COc1cccc(N(CC2CC2)[C@H]2CC[C@H](N(C)c3c(C#N)c(=O)n(C)c4ccc(Cl)nc34)CC2)c1` [Example 21, trans-6-chloro-4-((4-((cyclopropylmethyl)(3-methoxyphenyl)amino)cyclohexyl)(methyl)amino)-1-methyl-2-oxo-1,2-dihydro-1,5-naphthyridine-3-carbonitrile]: the figures for the IC50 in test [1] and in test [2] were 10 to 100 nM and ≥ 1000 nM, respectively.

For `Cn1c(=O)c(C#N)c(N(C)[C@H]2CC[C@H](N(CC3CCCOC3)c3ccc(F)cc3)CC2)c2nc(C#N)ccc21` (relative stereo) [Example 58, trans-8-((4-((4-fluorophenyl)((tetrahydro-2H-pyran-3-yl)methyl)amino)cyclohexyl)(methyl)amino)-5-methyl-6-oxo-5,6-dihydro-1,5-naphthyridine-2,7-dicarbonitrile], the values for the IC50 in test [1] and in test [2] were 100 to 1000 nM and ≥ 1000 nM, respectively.

Regarding `COc1cc(F)ccc1N(C1CC1)[C@H]1CC[C@H](N(C)c2cc(=O)n(C)c3ccc(C#N)nc23)CC1` [Example 3V], the half-maximal inhibitory concentration (IC50) was ≥ 1000 nM in test [1] and 100 to 1000 nM in test [2].

Consider `Cn1c(=O)c(C#N)c(N(C)[C@H]2CC[C@@H](N(CC3CC3)c3ccc(F)c(F)c3)CC2)c2nc(C#N)ccc21` [Example 60, cis-8-((4-((cyclopropylmethyl)(3,4-difluorophenyl)amino)cyclohexyl)(methyl)amino)-5-methyl-6-oxo-5,6-dihydro-1,5-naphthyridine-2,7-dicarbonitrile], for which the concentration for half-maximal inhibition (IC50) in test [1] fell in the range of 100 to 1000 nM; in test [2], 10 to 100 nM.

As for `Cn1c(=O)cc(N(C)[C@H]2CC[C@@H](N(CC3COCCO3)c3cccc4c3OCO4)CC2)c2nc(C#N)ccc21` (single isomer, unassigned) [Example 196, cis-8-((-4-((((R or S)-1,4-dioxan-2-yl)methyl) (benzo[d][1,3]dioxol-4-yl)amino)cyclohexyl)(methyl)amino)-5-methyl-6-oxo-5,6-dihydro-1,5-naphthyridine-2-carbonitrile], the half-maximal inhibitory concentration (IC50) in test [1] was ≥ 1000 nM; in test [2] it was 100 to 1000 nM.

As to `Cn1c(=O)c(C#N)c(N(C)[C@H]2CC[C@@H](N(CC3CCC3)c3cc4c(cc3F)OCO4)CC2)c2nc(C#N)ccc21` [Example 160, cis-8-((-4-((cyclobutylmethyl)(6-fluorobenzo[d][1,3]dioxol-5-yl)amino)cyclohexyl)(methyl)amino)-5-methyl-6-oxo-5,6-dihydro-1,5-naphthyridine-2,7-dicarbonitrile], the IC50 in test [1] is < 10 nM; in test [2], 10 to 100 nM.

For `Cn1c(=O)c(C#N)c(N(C)[C@H]2CC[C@@H](N(CC3CCCOC3)c3ccc4c(c3)OCO4)CC2)c2nc(C#N)ccc21` (stereo partly drawn) [Example 116, cis-8-((-4-(benzo[d][1,3]dioxol-5-yl((tetrahydro-2H-pyran-3-yl)methyl)amino)cyclohexyl)(methyl)amino)-5-methyl-6-oxo-5,6-dihydro-1,5-naphthyridine-2,7-dicarbonitrile], the IC50 in test [1] was < 10 nM; in test [2], 10 to 100 nM.

As for `Cc1[nH]c2ccccc2c1C(=O)N[C@H]1CC[C@@H](N(CC2COC2)c2ccccc2)CC1` [Example 4D, cis-2-Methyl-N-(4-((oxetan-3-ylmethyl)(phenyl)amino)cyclohexyl)-1H-indole-3-carboxamide], the half-maximal inhibitory concentration (IC50) in test [1] and in test [2] was ≥ 1000 nM in each case.

Turning to `Cc1ccc(N(CC2CCOC2)[C@H]2CC[C@@H](N(C)c3cc(=O)n(C)c4ccc(C#N)nc34)CC2)cc1OC(F)F` (stereo partly drawn) [Example 162, cis-8-((-4-((3-(difluoromethoxy)-4-methylphenyl) ((tetrahydrofuran-3-yl)methyl)amino)cyclohexyl) (methyl)amino)-5-methyl-6-oxo-5,6-dihydro-1,5-naphthyridine-2-carbonitrile], the IC50 in test [1] and in test [2] was 100 to 1000 nM in each case.

Take `Cc1ccc(N(CC2CCC2)[C@H]2CC[C@@H](N(C)c3cc(=O)n(C)c4ccc(C#N)nc34)CC2)cc1` [Example 100]: the IC50 in test [1] was < 10 nM; in test [2] it was ≥ 1000 nM.

Take `Cn1c(=O)c(C#N)c(N(C)[C@H]2CC[C@H](N(c3ccc(F)cc3)C3CCC3)CC2)c2nc(C#N)ccc21` [Example 19]: the IC50 in test [1] and in test [2] was 100 to 1000 nM throughout.

On to `Cn1c(=O)cc(N(C)[C@H]2CC[C@H](N(CC3CC3)c3ccc(F)c(OC(F)F)c3)CC2)c2nc(C#N)ccc21` [Example 80], for which the IC50 in test [1] and in test [2] was ≥ 1000 nM throughout.

Consider `Cn1c(=O)c(C#N)c(N(C)[C@H]2CC[C@H](N(CC3COCCO3)c3ccc(F)cc3)CC2)c2nc(C#N)ccc21` (stereo partly drawn) [Example 149, trans-8-((-4-(((1,4-dioxan-2-yl)methyl)(4-fluorophenyl)amino)cyclohexyl)(methyl)amino)-5-methyl-6-oxo-5,6-dihydro-1,5-naphthyridine-2,7-dicarbonitrile], for which the IC50 in test [1] and in test [2] was 100 to 1000 nM in each case.

Take `Cn1c(=O)c(C#N)c(N(C)[C@H]2CC[C@H](N(CC3CCC3)c3ccc(F)cc3C3CC3)CC2)c2nc(C#N)ccc21` [Example 127, trans-8-((-4-((cyclobutylmethyl)(2-cyclopropyl-4-fluorophenyl)amino)cyclohexyl)(methyl)amino)-5-methyl-6-oxo-5,6-dihydro-1,5-naphthyridine-2,7-dicarbonitrile]: the figures for the IC50 in test [1] and in test [2] were 100 to 1000 nM and 10 to 100 nM, respectively.

In the case of `Cn1c(=O)c(C#N)c(N(C)[C@H]2CC[C@H](N(CC3CCOCC3)c3ccc(F)cc3)CC2)c2nc(C#N)ccc21` [Example 59, trans-8-((-4-((4-fluorophenyl)((tetrahydro-2H-pyran-4-yl)methyl)amino)cyclohexyl)(methyl)amino)-5-methyl-6-oxo-5,6-dihydro-1,5-naphthyridine-2,7-dicarbonitrile], the IC50 in test [1] and in test [2] was 100 to 1000 nM in each case.

As to `Cn1c(=O)c(C#N)c(N(C)[C@H]2CC[C@@H](N(CC3COCCO3)c3ccc4c(c3)OCO4)CC2)c2nc(C#N)ccc21` (stereo partly drawn) [Example 177, cis-8-((4-(((1,4-dioxan-2-yl)methyl)(benzo[d][1,3]dioxol-5-yl)amino)cyclohexyl)(methyl)amino)-5-methyl-6-oxo-5,6-dihydro-1,5-naphthyridine-2,7-dicarbonitrile], the IC50 in test [1] and in test [2] was < 10 nM each time.
